Measurements published in publication PMC8617627, “Novel DYRK1A Inhibitor Rescues Learning and Memory Deficits in a Mouse Model of Down Syndrome” (Pharmaceuticals, 2021).
Where two headings read alike, the source gives them in different places.

Assays:
Experiment in all cases: Kinase profile (33P ATP filter binding)
Format in all cases: biochemical
p38d MAPK = biological target: T1, p38d MAPK (Homo sapiens, UniProt O15264); settings: read-out: Remaining protein kinase activity
T1 sequence (O15264 1-365): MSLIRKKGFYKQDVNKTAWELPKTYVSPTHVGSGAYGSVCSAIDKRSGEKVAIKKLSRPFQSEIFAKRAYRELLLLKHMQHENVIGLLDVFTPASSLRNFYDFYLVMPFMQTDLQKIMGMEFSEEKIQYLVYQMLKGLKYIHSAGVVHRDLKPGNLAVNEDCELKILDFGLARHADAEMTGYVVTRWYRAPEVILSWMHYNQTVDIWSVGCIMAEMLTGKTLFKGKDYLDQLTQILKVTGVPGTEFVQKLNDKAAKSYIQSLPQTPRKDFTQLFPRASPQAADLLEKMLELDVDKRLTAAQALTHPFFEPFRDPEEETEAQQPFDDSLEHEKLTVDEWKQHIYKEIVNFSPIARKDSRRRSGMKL

MARK4 = biological target: T2, MARK4 (Homo sapiens, UniProt Q96L34)
T2 sequence (Q96L34 1-752): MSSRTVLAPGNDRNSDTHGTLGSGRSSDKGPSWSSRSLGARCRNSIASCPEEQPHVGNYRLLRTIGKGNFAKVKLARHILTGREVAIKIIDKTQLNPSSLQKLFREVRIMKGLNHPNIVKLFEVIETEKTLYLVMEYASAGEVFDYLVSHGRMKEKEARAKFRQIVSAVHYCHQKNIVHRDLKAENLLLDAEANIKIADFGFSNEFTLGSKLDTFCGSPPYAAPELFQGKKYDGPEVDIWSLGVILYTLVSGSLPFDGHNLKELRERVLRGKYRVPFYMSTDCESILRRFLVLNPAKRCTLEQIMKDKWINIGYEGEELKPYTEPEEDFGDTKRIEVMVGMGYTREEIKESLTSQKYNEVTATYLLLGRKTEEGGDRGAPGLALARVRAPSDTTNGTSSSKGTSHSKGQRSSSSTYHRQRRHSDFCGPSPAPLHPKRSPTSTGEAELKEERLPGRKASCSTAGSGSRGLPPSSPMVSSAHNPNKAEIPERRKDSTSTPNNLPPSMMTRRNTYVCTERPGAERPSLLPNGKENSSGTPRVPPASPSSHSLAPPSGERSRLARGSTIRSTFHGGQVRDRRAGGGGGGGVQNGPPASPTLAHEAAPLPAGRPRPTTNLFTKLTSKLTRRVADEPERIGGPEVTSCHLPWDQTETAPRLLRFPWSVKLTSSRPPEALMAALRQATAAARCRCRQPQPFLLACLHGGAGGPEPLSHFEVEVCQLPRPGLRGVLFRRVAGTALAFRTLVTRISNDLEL

SIK2 = SIK2 (Homo sapiens, UniProt Q9H0K1); settings: read-out: Remaining protein kinase activity
Sequence of SIK2 (Q9H0K1 whole entry): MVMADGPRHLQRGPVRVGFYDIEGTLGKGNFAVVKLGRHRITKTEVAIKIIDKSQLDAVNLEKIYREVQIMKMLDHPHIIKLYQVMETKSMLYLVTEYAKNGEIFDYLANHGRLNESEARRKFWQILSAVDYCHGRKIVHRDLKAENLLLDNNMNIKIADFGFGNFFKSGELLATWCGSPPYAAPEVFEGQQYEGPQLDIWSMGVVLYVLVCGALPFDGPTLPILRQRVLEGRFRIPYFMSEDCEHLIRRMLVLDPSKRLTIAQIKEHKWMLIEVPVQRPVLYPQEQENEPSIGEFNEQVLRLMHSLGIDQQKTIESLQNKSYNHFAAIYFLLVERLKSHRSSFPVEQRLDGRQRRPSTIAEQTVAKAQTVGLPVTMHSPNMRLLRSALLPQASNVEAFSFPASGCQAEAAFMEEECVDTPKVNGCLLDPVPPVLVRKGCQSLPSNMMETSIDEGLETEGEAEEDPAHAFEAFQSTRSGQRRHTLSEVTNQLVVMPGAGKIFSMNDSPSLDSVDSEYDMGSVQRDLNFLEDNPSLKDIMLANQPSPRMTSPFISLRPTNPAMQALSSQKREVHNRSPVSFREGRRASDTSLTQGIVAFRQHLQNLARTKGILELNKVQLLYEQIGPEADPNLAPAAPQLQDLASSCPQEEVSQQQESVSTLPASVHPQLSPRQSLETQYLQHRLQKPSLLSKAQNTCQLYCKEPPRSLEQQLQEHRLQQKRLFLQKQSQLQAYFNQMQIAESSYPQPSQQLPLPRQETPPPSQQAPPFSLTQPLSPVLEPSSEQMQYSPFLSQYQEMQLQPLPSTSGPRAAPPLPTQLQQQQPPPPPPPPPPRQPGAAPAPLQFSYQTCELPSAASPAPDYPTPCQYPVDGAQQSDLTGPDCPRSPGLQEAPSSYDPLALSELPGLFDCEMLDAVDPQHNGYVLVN

EF2K = biological target: T3, EF2K (Homo sapiens, UniProt O00418); settings: read-out: Remaining protein kinase activity
T3 sequence (O00418 1-725): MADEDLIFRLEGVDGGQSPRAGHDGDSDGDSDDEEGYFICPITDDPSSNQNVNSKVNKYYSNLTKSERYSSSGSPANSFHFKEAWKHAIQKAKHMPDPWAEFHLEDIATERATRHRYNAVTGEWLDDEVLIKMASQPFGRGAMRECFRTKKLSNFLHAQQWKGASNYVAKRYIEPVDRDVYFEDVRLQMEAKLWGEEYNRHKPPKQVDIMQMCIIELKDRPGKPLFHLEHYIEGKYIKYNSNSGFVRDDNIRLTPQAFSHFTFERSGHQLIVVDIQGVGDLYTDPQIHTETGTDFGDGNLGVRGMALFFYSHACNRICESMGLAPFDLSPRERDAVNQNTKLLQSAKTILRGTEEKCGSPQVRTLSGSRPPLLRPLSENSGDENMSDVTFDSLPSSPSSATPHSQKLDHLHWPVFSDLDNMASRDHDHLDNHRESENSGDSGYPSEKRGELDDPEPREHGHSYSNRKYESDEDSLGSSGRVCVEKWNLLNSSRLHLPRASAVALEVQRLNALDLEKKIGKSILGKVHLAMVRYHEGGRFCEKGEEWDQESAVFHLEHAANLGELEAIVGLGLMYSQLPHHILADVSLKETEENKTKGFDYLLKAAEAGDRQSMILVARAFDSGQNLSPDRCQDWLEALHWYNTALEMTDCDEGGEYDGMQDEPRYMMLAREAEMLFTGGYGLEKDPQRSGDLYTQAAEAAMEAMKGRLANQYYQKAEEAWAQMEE

p38b MAPK = p38b MAPK (Homo sapiens, UniProt Q15759); settings: read-out: Remaining protein kinase activity
Sequence of p38b MAPK (Q15759 whole entry): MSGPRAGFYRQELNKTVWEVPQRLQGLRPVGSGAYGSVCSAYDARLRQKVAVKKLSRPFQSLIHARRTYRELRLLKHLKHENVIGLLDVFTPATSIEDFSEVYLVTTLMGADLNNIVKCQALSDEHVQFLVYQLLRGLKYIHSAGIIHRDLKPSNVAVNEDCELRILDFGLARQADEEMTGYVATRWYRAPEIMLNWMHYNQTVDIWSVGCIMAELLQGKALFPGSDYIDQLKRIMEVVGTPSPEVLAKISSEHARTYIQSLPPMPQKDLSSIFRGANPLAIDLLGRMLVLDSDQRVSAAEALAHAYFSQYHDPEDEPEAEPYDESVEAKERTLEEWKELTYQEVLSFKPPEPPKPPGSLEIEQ

| SMILES | remaining activity at 1 µM (p38d MAPK; p38d MAPK, 1 μM) | remaining activity at 100 µM (p38d MAPK; p38d MAPK, 100 μM) | Remaining protein kinase activity (MARK4; 1 μM) | Remaining protein kinase activity (MARK4; 100 μM) | remaining activity at 1 µM (SIK2; SIK2, 1 μM) | remaining activity at 100 µM (SIK2; SIK2, 100 μM) | remaining activity at 1 µM (EF2K; EF2K, 1 μM) | remaining activity at 100 µM (EF2K; EF2K, 100 μM) | remaining activity at 1 µM (p38b MAPK; p38b MAPK, 1 μM) | remaining activity at 100 µM (p38b MAPK; p38b MAPK, 100 μM) | remaining activity at 1 µM (p38d MAPK) | remaining activity at 100 µM (p38d MAPK) | remaining activity at 1 µM (SIK2) | remaining activity at 100 µM (SIK2) | remaining activity at 1 µM (EF2K) | remaining activity at 100 µM (EF2K) | remaining activity at 100 µM (p38b MAPK) |
| --- | --- | --- | --- | --- | --- | --- | --- | --- | --- | --- | --- | --- | --- | --- | --- | --- | --- |
| COc1ccc2sc(-c3cncc(N)c3)nc2c1 [compound 1, 5-(5-Methoxybenzo[d]thiazol-2-yl)pyridin-3-amine] | 116% | 95% | 131% | 58% | 102% | 10% | 112% | 84% | 119% | 101% | – | – | – | – | – | – | – |
| COc1ccc2sc(-c3cncc(NC(C)=O)c3)nc2c1 [PST-001, N-(5-(5-Methoxybenzo[d]thiazol-2-yl)pyridin-3-yl)acetamide] | – | – | 121% | 103% | – | – | – | – | – | – | 115% | 112% | 112% | 65% | 113% | 106% | 115% |
